Results: patent publication US8119588B2, “Hard surface cleaner compositions of sulfonated estolides and other derivatives of fatty acids and uses thereof” (Stepan Company, priority 2009, dated 2012)

Columns and labels:
[1] = Surface activity by Kruss K12 tensiometer; type: physicochemical; settings: 25° C. in deionized water
Description: The surface activity was measured using a Kruss K12 tensiometer at 25° C. in deionized water. The critical micelle concentration (CMC) and the surface tension at CMC are important properties for a surfactant. CMC indicates the minimum concentration of a surfactant that forms aggregates. […] The surface tension indicates how efficient a surfactant can reduce the surface energy of water. Lower surface tension is favorable for wetting and cleansing.

[2] = Coupling ability (hydrotrope requirement) with nonionic surfactants of different HLB; type: physicochemical
Description: Sodium xylene sulfonate (SXS) is often used as a hydrotrope to clarify cloudy formulations. […] In Table 2, the measurement of the amount of hydrotrope or surfactant needed to clear the solution was determined.
The compositions described in Table 2 are made in accordance with the following steps: • Add the water and trisodium citrate and mix until the solution is clear. Add BIO-SOFT® N25-9 slowly until the solution is homogeneous. Add BIO-SOFT® N25-3 and mix until the solution is homogeneous. If the final solution is cloudy, then continue adding the hydrotrope or surfactant and agitate until solution is clear.

CMC [1] [mg/L]	Surface Tension @CMC [1] [mN/m]	Molecule	Final appearance ([2]; after adding hydrotrope or surfactant to cloudy nonionic blend)	hydrotrope requirement (actives) ([2]; amount needed to clear blend of 5% Bio-soft N25-9, 5% Bio-Soft N25-3, 1% trisodium citrate) [% actives]
184.8	26.3	CCCCCCCCCCCCOS(=O)(=O)[O-].[Na+] [STEPANOL WA-EXTRA, Sodium Lauryl Sulfate]	–	–
171	25	Sodium Laureth Sulfate, 2EO [STEOL CS-230]	–	–
75	30	Sodium Laureth Sulfate, 3EO [STEOL CS-330]	–	–
–	–	Sodium xylene sulfonate [SXS]	clear	5.3
